Test results: patent publication US6699676B1, “Uses of ouabain and ouabain-like molecules in apoptosis related pathologies” (Corporation du Centre de Recherche du Centre, Hospitalier …, priority 1999, dated 2004)
Marks after values point to notes of the source that are not given here.

What was measured:
VSMC [1] = test: Protein synthesis in VSMC; conditions: 8 hours incubation with ouabain, data not shown
Jurkat cells = test: Intracellular Na+ and K+ content in Jurkat cells; type: cell-based, human; conditions: for Intracellular cations K^+i / Intracellular cations Na^+i: ouabain-treated Jurkat cells, 1 mM, 6 hours
Method: FIG. 1. Kinetics of modulation of intracellular Na^+ (1, 2) and K^+ (3, 4) content by ouabain in VSMC-E1A (1, 3) and Jurkat cells (2, 4). Cells were preincubated for 24 hours in the presence of 10% calf serum in control medium consisting of 91 mM NaCl, 5 mM KCl, 0.9 mM NaH2PO4, 44 mM NaHCO3, 1.8 mM CaCl2, 0.8 mM MgCl2, 33 mM HEPES and 5 mM D-glucose (pH 7.4) with 2 μCi/ml of ^22Na or 0.5 μCi/ml ^86Rb, and 1 mM ouabain was added at the time interval indicated by the arrow. At specific time-points, intracellular Na^+ and K content + was measured as described in Experimental Procedures. Mean values±S.E. obtained in experiments performed in quadruplicate (VSMC-E1A) or triplicate (Jurkat cells) are given.
To estimate chromatin cleavage, cells were incubated for 2 hours in the presence of 10% calf serum in the control solution (DMEM, [Na^+]=137 mM; [K^+]=5 mM—line 1) or under equimolar substitution of NaCl with KCl ([Na^+]=14 mM; [K^+]=128 mM—line 2) with or without 1 mM ouabain and then for an additional 7 hours at the same media with or without 100 ng/ml Fas ligand (Fas-L). Intracellular Na^+ and K^+ content was measured as steady-state distribution of isotopes after 24 hours preincubation of cells in control Na^+-enriched solution containing 0.5 μCi/ml ^86Rb or 2 μCi/ml ^22Na, and an additional 6 hours incubation in Na^+—(line 1) or K^+—(line 2) enriched medium containing 10% calf serum, isotopes with the same specific activity with or without 1 mM ouabain. For more details see Experimental Procedures. Mean values±S.E. obtained in experiments performed in triplicate are given. ★, #p<0.01 and 0.001 compared to ouabain-untreated cells.
Intracellular Na^+ and K^+ content. The intracellular content of exchangeable Na^+ and K^+ was measured as steady-state distribution of extra- and intracellular ^22Na and ^86Rb, as described previously in detail (22). Briefly, to establish the steady-state distribution of isotopes, VSMC growing in 12× (^22Na) or 24× (^86Rb) well plates or ˜10^6 Jurkat cells in suspension were preincubated for 24 hours in DMEM containing 10% calf serum and 0.5 μCi/ml ^86RbCl or 2 μCi/ml ^22NaCl and then treated in media with compositions shown in FIG. 1 and Tables 3 and 4 and with the same specific radioactivity. At the end of incubation, the VSMC were transferred on ice, washed 4 times with 2 ml of ice-cold medium W, containing 100 mM MgCl2 and 10 mM HEPES-tris buffer (pH 7.4), and lysed with SDS/EDTA mixture. One ml of Jurkat cell suspension was applied on a Whatman type C filter with the cells being washed with 3×5 ml aliquots of ice-cold medium W under negative pressure of 20-30 mm Hg. Radioactivity of the incubation medium and cell lysate was measured with a liquid scintillation analyzer and intracellular cation content was determined as A/am, where A was the radioactivity of the samples (cpm), a was the specific radioactivity of Na^+ and K^+(^86Rb) in the medium (cpm/nmol), and m was the protein content determined by Lowry methods.

VSMC-E1A = test: 3'-end DNA labeling / DNA laddering in VSMC-E1A; type: cell-based, rat; conditions: 1 mM ouabain, serum deprivation
Method: FIG. 3. Effect of ouabain on morphology (A) and DNA laddering (B and C) in VSMC-E1A. In experiments with ouabain, cells were pretreated with 1 mM of this compound 1 hour before 6 hours exposure to serum-free medium. A. Cell morphology was evaluated by phase contrast microscopy without preliminary fixation. a, c) DMEM containing 10% calf serum; b, d) serum-free DMEM; a, b) without ouabain; c, d) in the presence of ouabain. Micro graphs were prepared using a Nikon phase contrast microscope at ×100 magnification. Apoptotic cells are shown by arrows. B. DNA laddering (left part of the figure) was analyzed with a PhosphorImager, and relative content of low molecular weight DNA fragments (1,500−125 bp−right part of the figure) in cells incubated with 10% calf serum (CS) in the absence of ouabain was taken as 100%. Means±S.E. obtained in 2 experiments performed in triplicate are shown.
3′-end DNA labeling. VSMC-E1A seeded in 75 cm^2 flasks were treated with 4 ml of lysis buffer containing 50 mM tris-HCI, 20 mM EDTA (pH 8.0), 0.5% SDS and 500 μg/ml proteinase K. The lysate was incubated at 50° C. for 3 hours, mixed with 250 μg/ml RNAase A and incubated for 1 hour at 37° C. […] After 1 hour incubation at 37° C., the aliquots were loaded on 1.5% agarose gel, run at 100 V for 3 to 4 hours, transferred onto a nylon membrane (Hybond N+, Amersham), and analyzed with a PhosphorImager. […]

VSMC [2] = test: LDH release (necrosis marker) in VSMC; type: cell-based, rat
Method: VSMC growing in 6-well (LDH release) or 24-well (chromatin cleavage assay) plates were preincubated for 3 hours with or without 1 mM ouabain. In part of the experiments, the cells were subjected to 30 min incubation at 46° C. (heat-treated cells, line 3). They were then incubated in the absence or presence of 10% calf serum during additional 8 hr and chromatin cleavage and LDH release were measured as indicated in Experimental Procedures and with a spectrophotometric kit (Sigma), respectively. Means±S.E. from experiments performed in triplicate (LDH release) or quadruplicate (chromatin cleavage) are given. ★, ★★ p<0.05 and 0.001 compared to ouabain-untreated cells. #p<0.001 compared to serum-supplied, heat-untreated cells.

C[C@@H]1O[C@@H](O[C@H]2C[C@@H](O)[C@]3(CO)[C@H]4[C@H](O)C[C@]5(C)[C@@H](C6=CC(=O)OC6)CC[C@]5(O)[C@@H]4CC[C@]3(O)C2)[C@H](O)[C@H](O)[C@H]1O [Ouabain, 1β,3β,5,11α,14,19-hexahydroxycard 20 [22]-enolide 3-[6-deoxy-α-L-mannopyrano-sidel]]
protein synthesis (VSMC [1]): did not observe any significant effect | increase of the content of intracellular Na^+ (Jurkat cells; ouabain treated Jurkat lymphocytes, 1 mM (FIG. 1, curve 2)): 10 fold | Intracellular cations K^+i (Jurkat cells; medium [Na+]o=14, [K+]o=128 mM): 498 nmol/mg protein | Intracellular cations Na^+i (Jurkat cells; medium [Na+]o=14, [K+]o=128 mM): 204 nmol/mg protein | Intracellular cations K^+i (Jurkat cells; medium [Na+]o=137, [K+]o=5 mM): 107 nmol/mg protein | Intracellular cations Na^+i (Jurkat cells; medium [Na+]o=137, [K+]o=5 mM): 1137 nmol/mg protein | DNA laddering and low molecular weight 3'-end labeled DNA fragments (VSMC-E1A): prevented DNA laddering | LDH release (VSMC [2]; VSMC, 8 hours incubation with ouabain): did not observe any significant effect | heat stress-induced LDH-release (VSMC [2]; VSMC, heat stress 46° C., 30 min, ouabain): did not observe modulation | LDH release (%) (VSMC [2]; serum-deprived VSMC, 3 hours preincubation 1 mM ouabain, additional 8 hr): 1.8 ± 0.4% | LDH release (%) (VSMC [2]; serum-supplied VSMC, 3 hours preincubation 1 mM ouabain, additional 8 hr): 1.2 ± 0.3% | LDH release (%) (VSMC [2]; serum-supplied, heat-treated (46° C., 30 min) VSMC, 1 mM ouabain, 8 hr): 11.0 ± 2.8# %
